For 14 compounds, MIC and EC50 results are on record in patent US10919916B2, “Boron-containing small molecules” (Bill & Melinda Gates Foundation, priority 2016, dated 2021).

pEC50: −log10 of the molar value. Values after ≈ are worked out from the molar mass of the structure shown. Like-named read-outs stand apart in the source and are kept apart here.

Common to all, as to format: cell-based
Assay [1] concerns Staphylococcus aureus, MRSA (ATCC 33591). Description: Antibacterial MIC assay (microbroth dilution, CLSI). Conditions: read-out: MIC Staphylococcus aureus, MRSA (ATCC 33591). The method in brief: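 Microbroth dilution per CLSI M07-A10/M100-S25 in cation-adjusted Mueller-Hinton broth, with 3% lysed horse blood added for S. pneumoniae. Inoculum from a 0.5 McFarland direct colony suspension, diluted to 5×10^5 CFU/mL in the well. Compounds were 2-fold serially diluted; MIC read against a growth control.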

In assay [2] the test system is Streptococcus pneumoniae (ATCC 49619). Described as above. The method in brief:
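CLSI broth microdilution: 2-fold compound dilutions in cation-adjusted Mueller-Hinton broth supplemented with 3% lysed horse blood for S. pneumoniae, inoculum 5×10^5 CFU/mL from a 0.5 McFarland direct colony suspension, with growth control.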

Assay [3] has as its system Wolbachia pipientis in C6/36 cell line. The experiment in a line: Anti-Wolbachia high-content assay. Conditions: read-out: EC50 Wolbachia pipientis in C6/36 cell line. As to the method: After 15 minutes, all media was removed from each well and fresh media (no stain) was added. Imaging of each well was accomplished using a Perkin Elmer Operetta high-content imaging system. Five fields per well were imaged using a confocal 60× objective with the Fluorescein filter (excitation filter: 460-490 nm; emission filter: 500-550 nm). Images were analyzed using the Perkin Elmer Harmony software to score each intact cell on the basis of texture complexity of the cytoplasm. Full details can be found in: […]. et al, J. Biomol.

Where [4] appears, read: ATCC49619, read-out: MIC Streptococcus pneumoniae (ATCC 49619).
The mark [5] stands for this setting: microbroth dilution, cation-adjusted Mueller-Hinton broth, 35° C. for 16-20 hours.
Setting [6] is: ATCC49619, microbroth dilution, 3% lysed horse blood, 35° C. for 16-20 hours, read-out: MIC Streptococcus pneumoniae (ATCC 49619).
The mark [7] stands for this setting: C6/36 (wAlbB) cells, 7 days at 26° C., 50% reduction of Wolbachia.

For `C=C[C@]1(C)C[C@@H](OC(=O)COc2cc(CNC(=O)OC(C)(C)C)c3c(c2Cl)B(O)OC3)[C@]2(C)[C@H](C)CC[C@]3(CCC(=O)[C@H]32)[C@@H](C)[C@@H]1O` [Compound 7, (3aR,4R,5R,7S,8S,9R,9aS,12R)-8-hydroxy-4,7,9,12-tetramethyl-3-oxo-7-vinyldecahydro-4,9a-propanocyclopenta[8]annulen-5-yl 2-((4-(((tert-butoxycarbonyl)amino)methyl)-7-chloro-1-hydroxy-1,3-dihydrobenzo[c][1,2]oxaborol-6-yl)oxy)acetate], the MIC was in the range of 0.5 to 2 µg/mL (≈ 0.742 to 2.97 µM) in assay [1] and 4 to 32 µg/mL (≈ 5.93 to 47.5 µM) in assay [2] (setting [4]). Further, in assay [3] (C6/36, […]), the pEC50 was 6.37.
With `C=C[C@]1(C)C[C@@H](OC(=O)COc2cc(CN(C)C)c3c(c2)B(O)OC3)[C@]2(C)[C@H](C)CC[C@]3(CCC(=O)[C@H]32)[C@@H](C)[C@@H]1O.Cl` [Compound 13, (3aR,4R,5R,7S,8S,9R,9aS,12R)-8-hydroxy-4,7,9,12-tetramethyl-3-oxo-7-vinyldecahydro-4,9a-propanocyclopenta[8]annulen-5-yl 2-((4-((dimethylamino)methyl)-1-hydroxy-1,3-dihydrobenzo[c][1,2]oxaborol-6-yl)oxy)acetate Hydrochloride], the MIC in assay [1] (setting [5]) was < 0.25 µg/mL; in assay [2] (setting [6]), 0.5 to 2 µg/mL. Besides, in assay [3] (setting [7]), the pEC50 is 7.09.
For the compound `C=C[C@]1(C)C[C@@H](OC(=O)COc2cc3c(c(C4CCN(C(=O)OC(C)(C)C)CC4)c2)COB3O)[C@]2(C)[C@H](C)CC[C@]3(CCC(=O)[C@H]32)[C@@H](C)[C@@H]1O` [Compound 17, tert-butyl 4-(1-hydroxy-6-(2-(((3aR,4R,5R,7S,8S,9R,9aS,12R)-8-hydroxy-4,7,9,12-tetramethyl-3-oxo-7-vinyldecahydro-4,9a-propanocyclopenta[8]annulen-5-yl)oxy)-2-oxoethoxy)-1,3-dihydrobenzo[c][1,2]oxaborol-4-yl)piperidine-1-carboxylate], the values for the minimum inhibitory concentration (MIC) in assay [1] (setting [5]) and in assay [2] (setting [6]) were 0.5 to 2 µg/mL (≈ 0.721 to 2.88 µM) and < 0.25 µg/mL, respectively. Besides, the pEC50 in assay [3] (setting [7]) is 6.21.
Turning to `C=C[C@]1(C)C[C@@H](OC(=O)COc2cc3c(c(C4CCNCC4)c2)COB3O)[C@]2(C)[C@H](C)CC[C@]3(CCC(=O)[C@H]32)[C@@H](C)[C@@H]1O` [Compound 18, (3aR,4R,5R,7S,8S,9R,9aS,12R)-8-hydroxy-4,7,9,12-tetramethyl-3-oxo-7-vinyldecahydro-4,9a-propanocyclopenta[8]annulen-5-yl 2-((1-hydroxy-4-(piperidin-4-yl)-1,3-dihydrobenzo[c][1,2]oxaborol-6-yl)oxy)acetate], the MIC in assay [1] (setting [5]) fell in the range of 0.5 to 2 µg/mL (≈ 0.842 to 3.37 µM). For the same compound, in assay [3] (setting [7]), the pEC50 was < 6.00.
Turning to `C=C[C@]1(C)C[C@@H](OC(=O)COc2ccc3c(c2)B(O)OC3CNC(C)=O)[C@]2(C)[C@H](C)CC[C@]3(CCC(=O)[C@H]32)[C@@H](C)[C@@H]1O` (stereo partly drawn) [Compound 22, (3aR,4R,5R,7S,8S,9R,9aS,12R)-8-hydroxy-4,7,9,12-tetramethyl-3-oxo-7-vinyldecahydro-4,9a-propanocyclopenta[8]annulen-5-yl 2-((3-(acetamidomethyl)-1-hydroxy-1,3-dihydrobenzo[c][1,2]oxaborol-6-yl)oxy)acetate], the MIC in assay [1] (setting [5]) and in assay [2] (setting [6]) was 0.5 to 2 µg/mL (≈ 0.86 to 3.44 µM) throughout. Moreover, in assay [3] (setting [7]), the pEC50 is < 6.00.
Regarding `C=C[C@]1(C)C[C@@H](OC(=O)COc2ccc3c(c2)B(O)OC3CNS(C)(=O)=O)[C@]2(C)[C@H](C)CC[C@]3(CCC(=O)[C@H]32)[C@@H](C)[C@@H]1O` (stereo partly drawn) [Compound 23, (3aR,4R,5R,7S,8S,9R,9aS,12R)-8-hydroxy-4,7,9,12-tetramethyl-3-oxo-7-vinyldecahydro-4,9a-propanocyclopenta[8]annulen-5-yl 2-((1-hydroxy-3-(methylsulfonamidomethyl)-1,3-dihydrobenzo[c][1,2]oxaborol-6-yl)oxy)acetate], the MIC in assay [1] (setting [5]) and in assay [2] (setting [6]) was 0.5 to 2 µg/mL (≈ 0.81 to 3.24 µM) each time. In addition, in assay [3] (setting [7]), the pEC50 is 6.21.
Consider `C=C[C@]1(C)C[C@@H](OC(=O)COc2ccc3c(c2)B(O)OC3CC(=O)OC(C)(C)C)[C@]2(C)[C@H](C)CC[C@]3(CCC(=O)[C@H]32)[C@@H](C)[C@@H]1O` (stereo partly drawn) [Compound 24, tert-Butyl 2-(1-hydroxy-6-(2-(((3aR,4R,5R,7S,8S,9R,9aS,12R)-8-hydroxy-4,7,9,12-tetramethyl-3-oxo-7-vinyldecahydro-4,9a-propanocyclopenta[8]annulen-5-yl)oxy)-2-oxoethoxy)-1,3-dihydrobenzo[c][1,2]oxaborol-3-yl)acetate], for which the MIC in assay [1] (setting [5]) is < 0.25 µg/mL; in assay [2] (setting [6]), 0.5 to 2 µg/mL (≈ 0.801 to 3.2 µM). Moreover, the pEC50 in assay [3] (setting [7]) is < 6.00.
For the compound `C=C[C@]1(C)C[C@@H](OC(=O)COc2ccc3c(c2)B(O)OC3CC(=O)O)[C@]2(C)[C@H](C)CC[C@]3(CCC(=O)[C@H]32)[C@@H](C)[C@@H]1O` (stereo partly drawn) [Compound 25, 2-(1-hydroxy-6-(2-(((3aR,4R,5R,7S,8S,9R,9aS,12R)-8-hydroxy-4,7,9,12-tetramethyl-3-oxo-7-vinyldecahydro-4,9a-propanocyclopenta[8]annulen-5-yl)oxy)-2-oxoethoxy)-1,3-dihydrobenzo[c][1,2]oxaborol-3-yl)acetic acid], the MIC in assay [1] (setting [5]) and in assay [2] (setting [6]) was 0.5 to 2 µg/mL (≈ 0.88 to 3.52 µM) each time. The pEC50 in assay [3] (setting [7]) was < 6.00.
Consider `C=C[C@]1(C)C[C@@H](OC(=O)COc2ccc3c(c2)B(O)OC3CC(=O)OC)[C@]2(C)[C@H](C)CC[C@]3(CCC(=O)[C@H]32)[C@@H](C)[C@@H]1O` (stereo partly drawn) [Compound 26, (3aR,4R,5R,7S,8S,9R,9aS,12R)-8-hydroxy-4,7,9,12-tetramethyl-3-oxo-7-vinyldecahydro-4,9a-propanocyclopenta[8]annulen-5-yl 2-((1-hydroxy-3-(2-methoxy-2-oxoethyl)-1,3-dihydrobenzo[c][1,2]oxaborol-6-yl)oxy)acetate], for which the MIC in assay [1] (setting [5]) is < 0.25 µg/mL; in assay [2] (setting [6]), 0.5 to 2 µg/mL (≈ 0.858 to 3.43 µM). For the same compound, in assay [3] (setting [7]), the pEC50 was < 6.00.
In the same order, the values of `C=C[C@]1(C)C[C@@H](OC(=O)COc2ccc3c(c2)B(O)OC3CN(C)C)[C@]2(C)[C@H](C)CC[C@]3(CCC(=O)[C@H]32)[C@@H](C)[C@@H]1O` (stereo partly drawn) [Compound 27, (3aR,4R,5R,7S,8S,9R,9aS,12R)-8-hydroxy-4,7,9,12-tetramethyl-3-oxo-7-vinyldecahydro-4,9a-propanocyclopenta[8]annulen-5-yl 2-((3-((dimethylamino)methyl)-1-hydroxy-1,3-dihydrobenzo[c][1,2]oxaborol-6-yl)oxy)acetate] are < 0.25 µg/mL, < 0.25 µg/mL and 7.57.
Consider `C=C[C@]1(C)C[C@@H](OC(=O)COc2ccc3c(c2)B(O)ON=C3)[C@]2(C)[C@H](C)CC[C@]3(CCC(=O)[C@H]32)[C@@H](C)[C@@H]1O` [Compound 96, (3aR,4R,5R,7S,8S,9R,9aS,12R)-8-hydroxy-4,7,9,12-tetramethyl-3-oxo-7-vinyldecahydro-4,9a-propanocyclopenta[8]annulen-5-yl 2-((1-hydroxy-1H-benzo[d][1,2,6]oxazaborinin-7-yl)oxy)acetate], for which the MIC in assay [1] was < 0.25 µg/mL; in assay [2] (setting [4]), 0.5 to 2 µg/mL (≈ 0.955 to 3.82 µM).
The like results for `C=C[C@]1(C)C[C@@H](OC(=O)COc2ccc3c(c2F)B(O)ON=C3)[C@]2(C)[C@H](C)CC[C@]3(CCC(=O)[C@H]32)[C@@H](C)[C@@H]1O` [Compound 97, (3aR,4R,5R,7S,8S,9R,9aS,12R)-8-hydroxy-4,7,9,12-tetramethyl-3-oxo-7-vinyldecahydro-4,9a-propanocyclopenta[8]annulen-5-yl 2-((8-fluoro-1-hydroxy-1H-benzo[d][1,2,6]oxazaborinin-7-yl)oxy)acetate] were, in that order, < 0.25 µg/mL and 0.5 to 2 µg/mL (≈ 0.923 to 3.69 µM).
For `C=C[C@]1(C)C[C@@H](OC(=O)COc2cc3c(cn2)COB3O)[C@]2(C)[C@H](C)CC[C@]3(CCC(=O)[C@H]32)[C@@H](C)[C@@H]1O` [Compound 100, (3aR,4R,5R,7S,8S,9R,9aS,12R)-8-hydroxy-4,7,9,12-tetramethyl-3-oxo-7-vinyldecahydro-4,9a-propanocyclopenta[8]annulen-5-yl 2-((1-hydroxy-1,3-dihydro-[1,2]oxaborolo[4,3-c]pyridin-6-yl)oxy)acetate], the minimum inhibitory concentration (MIC) in assay [1] (setting [5]) is > 64 µg/mL. In addition, in assay [3] (setting [7]), the pEC50 was < 6.00.
As to `C=C[C@]1(C)C[C@@H](OC(=O)COc2ccc3c(c2)NB(C)C=C3)[C@]2(C)[C@H](C)CC[C@]3(CCC(=O)[C@H]32)[C@@H](C)[C@@H]1O` [Compound 104, (3aR,4R,5R,7S,8S,9R,9aS,12R)-8-hydroxy-4,7,9,12-tetramethyl-3-oxo-7-vinyldecahydro-4,9a-propanocyclopenta[8]annulen-5-yl 2-((2-methyl-1,2-dihydrobenzo[e][1,2]azaborinin-7-yl)oxy)acetate], the MIC in assay [1] (setting [5]) is < 0.25 µg/mL; in assay [2] (setting [6]) it was 0.5 to 2 µg/mL (≈ 0.962 to 3.85 µM).
